Results: ChEMBL document CHEMBL6121066, “Structure-Activity Relationship Studies of DNA Methyltransferase 1 Monovalent Degraders” (J Med Chem, 2025)

Tests used:
[1] = molecular target: Histone-lysine N-methyltransferase 2A (Homo sapiens) (UniProt Q03164); assay: Inhibition of human MLL1 using nucleosomes and SAM as substrate at 1 uM by radioisotope-based MT HotSpot assay relative to control
[2] = molecular target: Protein arginine N-methyltransferase 1 (Homo sapiens) (UniProt Q99873); assay: Inhibition of human PRMT1 using histone H4 and SAM as substrate at 1 uM by radioisotope-based MT HotSpot assay relative to control
Chain of Protein arginine N-methyltransferase 1 (Homo sapiens) (Q99873 whole entry, looked up): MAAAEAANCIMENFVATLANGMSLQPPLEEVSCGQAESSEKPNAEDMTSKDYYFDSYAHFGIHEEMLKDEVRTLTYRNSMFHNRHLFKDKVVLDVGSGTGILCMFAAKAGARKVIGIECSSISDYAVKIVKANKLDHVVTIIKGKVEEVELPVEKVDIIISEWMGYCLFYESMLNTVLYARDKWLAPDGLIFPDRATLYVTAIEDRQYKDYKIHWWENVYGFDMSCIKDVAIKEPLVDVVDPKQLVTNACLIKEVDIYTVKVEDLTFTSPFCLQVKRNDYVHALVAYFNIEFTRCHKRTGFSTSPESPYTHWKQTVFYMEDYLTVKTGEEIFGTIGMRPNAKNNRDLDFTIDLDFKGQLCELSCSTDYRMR

Chain of Histone-lysine N-methyltransferase 2A (Homo sapiens) (Q03164 1-2718 limits assumed): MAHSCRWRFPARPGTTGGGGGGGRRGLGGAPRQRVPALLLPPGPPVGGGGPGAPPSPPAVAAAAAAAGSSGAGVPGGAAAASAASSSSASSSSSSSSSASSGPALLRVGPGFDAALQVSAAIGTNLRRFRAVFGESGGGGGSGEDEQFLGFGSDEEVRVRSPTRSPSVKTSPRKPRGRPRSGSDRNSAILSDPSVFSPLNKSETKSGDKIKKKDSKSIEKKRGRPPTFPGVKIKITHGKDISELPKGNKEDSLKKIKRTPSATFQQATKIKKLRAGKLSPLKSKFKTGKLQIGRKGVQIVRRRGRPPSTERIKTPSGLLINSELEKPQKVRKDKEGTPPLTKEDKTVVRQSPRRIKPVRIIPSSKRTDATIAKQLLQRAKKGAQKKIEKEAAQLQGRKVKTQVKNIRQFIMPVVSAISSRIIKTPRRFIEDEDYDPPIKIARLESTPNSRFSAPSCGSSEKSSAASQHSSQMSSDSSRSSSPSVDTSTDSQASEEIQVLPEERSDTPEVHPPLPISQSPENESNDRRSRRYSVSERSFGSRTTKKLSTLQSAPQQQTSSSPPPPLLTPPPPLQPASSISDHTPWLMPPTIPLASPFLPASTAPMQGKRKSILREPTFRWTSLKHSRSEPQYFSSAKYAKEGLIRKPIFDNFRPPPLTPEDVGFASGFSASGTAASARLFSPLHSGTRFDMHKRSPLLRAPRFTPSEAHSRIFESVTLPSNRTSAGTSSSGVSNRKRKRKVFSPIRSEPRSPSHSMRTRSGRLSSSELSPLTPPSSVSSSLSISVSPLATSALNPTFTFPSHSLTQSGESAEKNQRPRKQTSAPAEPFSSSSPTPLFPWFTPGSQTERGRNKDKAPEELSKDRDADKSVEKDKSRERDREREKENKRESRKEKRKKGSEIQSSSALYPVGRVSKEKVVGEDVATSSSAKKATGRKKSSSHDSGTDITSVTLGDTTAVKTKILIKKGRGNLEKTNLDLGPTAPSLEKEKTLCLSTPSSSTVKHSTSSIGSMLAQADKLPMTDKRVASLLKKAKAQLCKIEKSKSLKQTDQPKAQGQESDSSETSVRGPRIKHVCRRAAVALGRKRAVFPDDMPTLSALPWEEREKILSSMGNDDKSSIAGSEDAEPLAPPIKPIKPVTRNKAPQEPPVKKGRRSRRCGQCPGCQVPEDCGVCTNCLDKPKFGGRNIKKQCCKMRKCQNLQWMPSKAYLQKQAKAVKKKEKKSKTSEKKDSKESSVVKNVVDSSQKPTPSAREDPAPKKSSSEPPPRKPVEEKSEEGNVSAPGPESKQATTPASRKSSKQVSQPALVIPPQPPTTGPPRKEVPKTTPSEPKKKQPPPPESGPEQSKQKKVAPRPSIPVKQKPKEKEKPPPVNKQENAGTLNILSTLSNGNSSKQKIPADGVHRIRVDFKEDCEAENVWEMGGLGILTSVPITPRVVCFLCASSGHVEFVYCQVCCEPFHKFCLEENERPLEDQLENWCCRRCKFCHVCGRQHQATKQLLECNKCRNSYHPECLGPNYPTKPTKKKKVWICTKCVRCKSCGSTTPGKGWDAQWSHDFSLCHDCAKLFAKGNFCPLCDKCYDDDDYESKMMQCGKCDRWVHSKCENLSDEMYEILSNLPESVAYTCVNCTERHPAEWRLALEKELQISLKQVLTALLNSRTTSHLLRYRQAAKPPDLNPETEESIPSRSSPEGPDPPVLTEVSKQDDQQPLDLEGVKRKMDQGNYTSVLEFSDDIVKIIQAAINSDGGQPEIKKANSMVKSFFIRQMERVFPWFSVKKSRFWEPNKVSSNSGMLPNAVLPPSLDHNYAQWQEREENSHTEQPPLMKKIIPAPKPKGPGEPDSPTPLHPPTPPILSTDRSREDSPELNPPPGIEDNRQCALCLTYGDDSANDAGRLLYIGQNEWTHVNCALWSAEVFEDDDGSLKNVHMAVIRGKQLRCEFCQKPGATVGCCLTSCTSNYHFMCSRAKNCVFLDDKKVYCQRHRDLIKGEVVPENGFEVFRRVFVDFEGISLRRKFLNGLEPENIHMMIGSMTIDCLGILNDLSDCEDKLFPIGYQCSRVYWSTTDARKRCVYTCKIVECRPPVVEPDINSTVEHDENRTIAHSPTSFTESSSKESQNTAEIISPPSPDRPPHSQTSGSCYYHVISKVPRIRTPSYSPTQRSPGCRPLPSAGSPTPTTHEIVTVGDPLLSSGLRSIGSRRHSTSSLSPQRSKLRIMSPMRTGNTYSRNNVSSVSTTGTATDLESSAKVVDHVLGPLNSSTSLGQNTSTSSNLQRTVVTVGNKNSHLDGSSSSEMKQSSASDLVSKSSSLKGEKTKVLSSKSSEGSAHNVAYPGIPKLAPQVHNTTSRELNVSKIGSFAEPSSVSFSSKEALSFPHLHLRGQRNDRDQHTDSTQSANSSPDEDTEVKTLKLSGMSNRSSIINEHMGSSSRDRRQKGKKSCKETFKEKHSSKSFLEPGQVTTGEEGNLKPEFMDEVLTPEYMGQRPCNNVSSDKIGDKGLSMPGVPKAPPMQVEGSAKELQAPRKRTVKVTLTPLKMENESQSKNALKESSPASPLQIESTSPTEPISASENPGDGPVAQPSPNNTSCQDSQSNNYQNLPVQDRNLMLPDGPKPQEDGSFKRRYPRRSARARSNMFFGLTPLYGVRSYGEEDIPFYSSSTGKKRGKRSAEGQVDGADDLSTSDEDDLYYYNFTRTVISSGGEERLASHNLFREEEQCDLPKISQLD
Chain of Histone-lysine N-methyltransferase 2A (Homo sapiens) (Q03164 2719-3969 limits assumed): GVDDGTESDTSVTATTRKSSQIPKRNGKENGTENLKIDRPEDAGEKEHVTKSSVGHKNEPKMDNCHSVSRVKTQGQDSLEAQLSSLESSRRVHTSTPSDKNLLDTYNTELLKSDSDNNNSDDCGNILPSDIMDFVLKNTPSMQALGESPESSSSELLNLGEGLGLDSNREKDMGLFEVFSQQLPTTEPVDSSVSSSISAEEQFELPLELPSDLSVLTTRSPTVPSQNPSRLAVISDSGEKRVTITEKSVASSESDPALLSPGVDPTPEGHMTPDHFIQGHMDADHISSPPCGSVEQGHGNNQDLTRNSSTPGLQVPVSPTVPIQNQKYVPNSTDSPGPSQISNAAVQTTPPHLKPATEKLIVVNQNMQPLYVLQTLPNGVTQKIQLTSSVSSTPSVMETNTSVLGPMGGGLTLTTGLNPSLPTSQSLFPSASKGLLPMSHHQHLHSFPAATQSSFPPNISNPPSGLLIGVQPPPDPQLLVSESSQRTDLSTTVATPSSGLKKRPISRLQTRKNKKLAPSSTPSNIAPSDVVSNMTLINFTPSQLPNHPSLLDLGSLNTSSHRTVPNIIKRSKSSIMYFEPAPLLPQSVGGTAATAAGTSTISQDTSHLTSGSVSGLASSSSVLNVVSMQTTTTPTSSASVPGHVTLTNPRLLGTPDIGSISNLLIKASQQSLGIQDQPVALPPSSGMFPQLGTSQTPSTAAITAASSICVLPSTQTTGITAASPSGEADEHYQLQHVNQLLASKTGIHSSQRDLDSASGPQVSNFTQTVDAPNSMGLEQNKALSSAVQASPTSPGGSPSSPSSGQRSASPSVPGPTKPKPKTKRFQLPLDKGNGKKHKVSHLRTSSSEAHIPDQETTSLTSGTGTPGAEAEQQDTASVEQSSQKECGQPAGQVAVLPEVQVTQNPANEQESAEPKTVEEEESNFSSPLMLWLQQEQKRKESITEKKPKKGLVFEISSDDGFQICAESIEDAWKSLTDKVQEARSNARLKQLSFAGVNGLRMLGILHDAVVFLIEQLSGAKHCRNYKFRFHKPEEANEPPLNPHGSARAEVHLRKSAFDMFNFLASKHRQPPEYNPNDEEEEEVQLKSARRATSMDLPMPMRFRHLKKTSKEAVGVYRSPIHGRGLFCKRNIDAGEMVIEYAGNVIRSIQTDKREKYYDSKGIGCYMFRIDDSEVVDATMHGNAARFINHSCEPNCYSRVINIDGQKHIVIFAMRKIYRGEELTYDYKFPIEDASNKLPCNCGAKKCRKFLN

Work on `CCc1c(C#N)c(SC(C(N)=O)c2ccccc2)nc(N(C)CC(=O)NC)c1C#N` (configuration not stated) yielded an inhibition [1] of less than 20% and an inhibition [2] of less than 20%.
